Among the data in US20240116882A1, “NOVEL BENZOTRIAZOLE DERIVATIVE HAVING INHIBITORY ACTIVITY AGAINST ECTONUCLEOTIDE PYROPHOSPHATASE-PHOSPHODIESTERASE, AND USE THEREOF” (TXINNO BIOSCIENCE INC., priority 2021, published 2024) are IC50 values, retold here.

The term IC50 denotes the concentration that gives 50% inhibition.

Where a name gives a salt, the structure may show the parent alone. Where only a bound is given, the exact number is not on record here.

In this test the target is T1, human recombinant ENPP1 enzymes (Homo sapiens, UniProt P22413).
T1 construct: purchased R & D systems
T1 sequence (P22413 1-925): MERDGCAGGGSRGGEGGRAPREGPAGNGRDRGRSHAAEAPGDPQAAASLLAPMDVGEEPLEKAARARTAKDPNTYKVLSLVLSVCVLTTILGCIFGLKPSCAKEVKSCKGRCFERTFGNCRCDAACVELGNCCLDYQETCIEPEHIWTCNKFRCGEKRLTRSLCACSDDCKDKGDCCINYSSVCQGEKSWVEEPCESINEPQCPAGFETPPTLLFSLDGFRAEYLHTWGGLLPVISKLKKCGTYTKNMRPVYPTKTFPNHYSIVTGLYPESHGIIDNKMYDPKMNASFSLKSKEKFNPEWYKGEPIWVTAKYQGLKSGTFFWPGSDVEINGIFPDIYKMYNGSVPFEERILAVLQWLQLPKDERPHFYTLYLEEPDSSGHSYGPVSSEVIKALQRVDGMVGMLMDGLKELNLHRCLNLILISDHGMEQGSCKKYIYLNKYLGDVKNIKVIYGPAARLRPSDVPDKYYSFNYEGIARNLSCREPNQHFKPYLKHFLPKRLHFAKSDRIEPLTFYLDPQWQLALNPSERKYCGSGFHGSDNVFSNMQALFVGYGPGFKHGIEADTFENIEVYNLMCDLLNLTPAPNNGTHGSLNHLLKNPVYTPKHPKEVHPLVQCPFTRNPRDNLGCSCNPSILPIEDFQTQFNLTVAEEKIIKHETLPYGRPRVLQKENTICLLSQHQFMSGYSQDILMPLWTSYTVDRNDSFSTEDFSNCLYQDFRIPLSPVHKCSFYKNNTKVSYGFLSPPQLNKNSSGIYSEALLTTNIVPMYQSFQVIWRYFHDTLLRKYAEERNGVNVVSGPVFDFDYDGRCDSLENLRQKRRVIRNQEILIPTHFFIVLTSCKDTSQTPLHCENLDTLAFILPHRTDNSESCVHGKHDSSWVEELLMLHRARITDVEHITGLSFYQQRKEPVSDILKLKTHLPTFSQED
Briefly: ENPP1 Enzyme Assay with cGAMP Substrate (AMP-Glo). Format: biochemical. Conditions: human recombinant ENPP1, cGAMP 5 μM, 37° C. 90 minutes, AMP-Glo luminescence; read-out: Enzymatic activity (IC50). As for the experimental part:
ENPP1 hydrolyzes nucleotides or nucleotide derivatives to produce nucleoside-5′-monophosphate and pyrophosphate. In addition, ENPP1 hydrolyzes 2′,3′-cGAMP to produce 5′-adenosine monophosphate (AMP) and 5′-guanosine monophosphate (GMP). AMP produced from the reaction is measured using the AMP-Glo® kit (Promega). The AMP-Glo® kit contains two reagents. The first reagent terminates the AMP-producing enzymatic reaction, removes ATP and converts the produced AMP into ADP. The second reagent converts ADP into ATP which is used to generate luminescence in the luciferase reaction. The amount of luminescence measured is proportional to the amount of AMP produced by ENPP1.
The final reaction solution contains 50 mM Tris (pH 8.5) buffer, 250 mM NaCl, 0.5 mM CaCl2), 1 μM ZnCl2, 5% glycerol and 1% DMSO. Serially diluted ENPP1 inhibitors (typically in the range of 10 μM to 0.5 nM) were pre-stored with human recombinant ENPP1 enzymes (R & D systems) at 3 ng/reaction and room temperature (RT) for 5 to 10 minutes. The reaction was initiated by addition of cGAMP (at a final concentration of 5 μM) and reacted at 37° C. for 90 minutes. At the end of the reaction, 10 μl of the AMP-Glo first reagent was added to stop the reaction and the result was stored at room temperature for 1 hour. After storage, 20 μl of an AMP detection solution (a mixture of AMP-Glo II reagent and Kinase-Glo at a ratio of 1:100) was added and stored at room temperature for 1 hour. Luminescence signals were measured using a Victor® plate reader (Perkin Elmer). The maximal activity control (containing enzymes and substrates in the presence of 1% DMSO; MAX) and the minimal activity control (containing substrates and 1% DMSO; MIN) were evaluated simultaneously. In each experiment, serially diluted reference ENPP1 inhibitors were tested as well. IC50, indicating % residual activity versus compound concentration was determined by fitting inhibition curves using the 3-parameter analysis of GraphPad Prism® software. Serially diluted samples of one compound were tested two or more times and an average IC50 of each compound was calculated.
In the case of `COc1ccc2c(c1)nnn2-c1ccc(CNS(N)(=O)=O)cn1` [Example 79, (N-(6-(5-methoxy-1H-benzo[d][1,2,3]triazol-1-yl)pyridin-3-yl)methyl)sulfamide], the IC50 is above 10 µM. Next, `COc1ccc2c(c1)nnn2-c1cc2c(cc1F)CNCC2` [Example 26, 7-fluoro-6-(5-methoxy-1H-benzo[d][1,2,3]triazol-1-yl)-1,2,3,4-tetrahydroisoquinoline Hydrochloride]: above 10 µM; `NS(=O)(=O)NCc1ccc(-n2nnc3cc(C(F)(F)F)ccc32)cc1` [Example 84]: above 10 µM; `NS(=O)(=O)NCc1ccc(-n2nnc3cc(C(F)(F)F)ccc32)c(F)c1` [Example 85]: above 10 µM. Regarding `COc1cc2nnn(-c3ccc4c(c3)CC(NS(N)(=O)=O)C4)c2cc1OC` (stereo not shown) [Example 103, N-(5-(5,6-dimethoxy-1H-benzo[d][1,2,3]triazol-1-yl)-dihydro-1H-inden-2-yl)sulfamide], the IC50 is below 1 µM. The figure for `COc1ccc2c(c1)nnn2-c1ccc(CNS(=O)(=O)c2ccc(C)cc2)cc1F` [Example 114, N-(3-fluoro-4-(5-methoxy-1H-benzo[d][1,2,3]triazol-1-yl)benzyl)-4-methylbenzenesulfonamide] is above 10 µM. On to `COc1ccc2c(c1)nnn2-c1ccc([C@H](C)NS(N)(=O)=O)cc1` [Example 83, (S)—N-(1-(4-(5-methoxy-1H-benzo[d][1,2,3]triazol-1-yl)phenyl)ethyl)sulfamide], for which the concentration for half-maximal inhibition (IC50) was below 1 µM. With `COc1ccc2c(c1)nnn2-c1cccc(CNS(N)(=O)=O)c1` [Example 49, N-(3-(5-methoxy-1H-benzo[d][1,2,3]triazol-1-yl)benzyl)sulfamide], the IC50 fell in the range of 1 to 10 µM. The figure for `NS(=O)(=O)NCc1ccc(-n2nnc3cc(O)ccc32)c(F)c1` [Example 74, N-(3-fluoro-4-(5-hydroxy-1H-benzo[d][1,2,3]triazol-1-yl)benzyl)sulfamide] is below 1 µM; for `COc1ccc2c(c1)nnn2-c1ccc(CNS(N)(=O)=O)c(F)c1F` [Example 65, N-(2,3-difluoro-4-(5-methoxy-1H-benzo[d][1,2,3]triazol-1-yl)-benzyl)sulfamide] it is below 1 µM; for `COc1ccc2c(c1)nnn2-c1ccc(C(=O)O)cc1F` [Example 116, 3-fluoro-4-(5-methoxy-1H-benzo[d][1,2,3]triazol-1-yl)benzoic Acid] it is above 10 µM. Take `COc1ccc2c(c1)nnn2-c1ccc(N)cc1` [Example 4, 4-(5-methoxy-1H-benzo[d][1,2,3]triazol-1-yl)aniline Hydrochloride]: the IC50 is 1 to 10 µM. Consider `COc1cc2nnn(-c3ccc(CNS(N)(=O)=O)cc3F)c2cc1OC` [Example 71, N-(4-(5,6-dimethoxy-1H-benzo[d][1,2,3]triazol-1-yl)-3-fluorobenzyl)sulfamide], for which the IC50 was below 1 µM. Next, `COc1ccc2c(c1)nnn2-c1cccc(CCN)c1` [Example 11, 2-(3-(5-methoxy-1H-benzo[d][1,2,3]triazol-1-yl)phenyl)ethan-1-amine Hydrochloride]: above 10 µM; `COc1ccc2c(c1)nnn2C1CCC(CNS(N)(=O)=O)CC1` (stereo not shown) [Example 43, N-((4-(5-methoxy-1H-benzo[d][1,2,3]triazol-1-yl)cyclohexyl)methyl)sulfamide]: below 1 µM. As for `COc1ccc2c(c1)nnn2-c1ccc(CN)cc1Cl` [Example 15, 3-chloro-4-(5-methoxy-1H-benzo[d][1,2,3]triazol-1-yl)phenyl)methanamine Hydrochloride], the IC50 was below 1 µM.

Take `COc1ccc2c(c1)nnn2Cc1ccc(NS(N)(=O)=O)cc1` [Example 104, N-(4-((5-methoxy-1H-benzo[d][1,2,3]triazol-1-yl)methyl)phenyl)sulfamide Hydrochloride]: the IC50 was in the range of 1 to 10 µM. Next, `COc1ccc2c(c1)nnn2-c1cccc(NS(N)(=O)=O)c1` [Example 47, N-(3-(5-methoxy-1H-benzo[d][1,2,3]triazol-1-yl)phenyl)sulfamide]: 1 to 10 µM; `COc1ccc2c(c1)nnn2C1CCN(S(N)(=O)=O)CC1` [Example 42, 4-(5-methoxy-1H-benzo[d][1,2,3]triazol-1-yl)piperidine-1-sulfonamide]: above 10 µM; `COc1ccc2c(c1)nnn2-c1ccc(CNS(N)(=O)=O)c(F)c1` [Example 60, N-(2-fluoro-4-(5-methoxy-1H-benzo[d][1,2,3]triazol-1-yl)benzyl)sulfamide]: below 1 µM. On to `COc1ccc2c(c1)nnn2-c1ccc(CNS(N)(=O)=O)cc1OC` [Example 68, N-(3-methoxy-4-(5-methoxy-1H-benzo[d][1,2,3]triazol-1-yl)benzyl)sulfamide], for which the IC50 was 1 to 10 µM.

As for `COc1ccc2c(c1)nnn2-c1ccc2c(c1)CCN(S(N)(=O)=O)C2` [Example 96, 6-(5-methoxy-1H-benzo[d][1,2,3]triazol-1-yl)-3,4-dihydroisoquinoline-2(1H)sulfonamide], the IC50 was below 1 µM.

For `NS(=O)(=O)NCc1ccc(-n2nnc3ccccc32)cc1` [Example 46, N-(4-(1H-benzo[d][1,2,3]triazol-1-yl)benzyl)sulfamide], the IC50 was 1 to 10 µM. With `COc1ccc2c(c1)nnn2CC1CCNCC1` [Example 3, 5-methoxy-1-(piperidin-4-ylmethyl)-1H-benzo[d][1,2,3]triazole], the IC50 lay within 1 to 10 µM.

Take `COc1ccc2c(c1)nnn2-c1ccc(CNC2CC2)cc1` [Example 13, N-(4-(5-methoxy-1H-benzo[d][1,2,3]triazol-1-yl)-benzyl)cyclopropanamine Hydrochloride]: the 50% inhibitory concentration (IC50) is above 10 µM. Next, `COc1cccc2nnn(-c3ccc(CNS(N)(=O)=O)cc3)c12` [Example 53, N-(4-(7-methoxy-1H-benzo[d][1,2,3]triazol-1-yl)benzyl)sulfamide]: above 10 µM. Turning to `COc1ccc2c(c1)nnn2-c1ccc(CN(C)S(N)(=O)=O)cc1` [Example 80], the IC50 is below 1 µM.

On to `COc1ccc2c(c1)nnn2-c1ccc(CNS(N)(=O)=O)nc1` [Example 78], for which the IC50 was below 1 µM.
